Measurements taken from patent US7985771B2, “Furanone derivatives” (Monsanto Technology LLC, priority 2002, dated 2011).

test system: ELAM (E-selectin) expression in endothelial cells; assay: E-selectin (ELAM) cell inflammation assay; assay type: cell-based; details: LPS and IL-1β stimulation, read-out: reduction of expression of ELAM, EC50
Experimental: Endothelial-Leukocyte Adhesion Molecule (ELAM), also known as E-selectin, is expressed on the surface of endothelial cells. In this assay, lipopolysaccharide (LPS) and IL-1β are used to stimulate the expression of ELAM; test agents are tested for their abilities to reduce this expression, in accordance with studies showing that reduction of leukocyte adhesion to endothelial cell surface is associated with decreased cellular damage (e.g., Takada, M., Et al., Transplantation 64: 1520-25, 1997; Steinberg, J. B., et al., J. Heart Lung Trans. 13:306-313, 1994).
Endothelial cells may be selected from any of a number of sources and cultured according to methods known in the art; including, for example, coronary artery endothelial cells, human brain microvascular endothelial cells (HBMEC; Hess, D.C., et al., Neurosci. Left. 213(1): 37-40, 1996), or lung endothelial cells. Cells are conveniently cultured in 96-well plates. Cells are stimulated by adding a solution to each well containing 10 μg/ml LPS and 100 pg/ml IL-1β for 6 hours in the presence of test agent (specific concentrations and time may be adjusted depending on the cell type). Treatment buffer is removed and replaced with pre-warmed Fixing Solution® (100 μl/well) for 25 minutes at room temperature. Cells are then washed 3×, then incubated with Blocking Buffer (PBS+2% FBS) for 25 minutes at room temperature. Blocking Buffer containing Monoclonal E-Selectin Antibody (1:750, Sigma Catalog #S-9555) is added to each well. Plates are sealed and stored at 4° overnight. Plates are washed 4× with 160 μL Blocking Buffer per well. Second Antibody-HRP diluted 1:5000 in Blocking Buffer is then added (100 μL/well), and plates are incubated at room temperature (protected from light) for two hours. Plates are then washed 4× with Blocking Buffer before addition of 100 μL of ABTS Substrate solution at room temperature (Zymed, Catalog #00-2024). Wells are allowed to develop for 35 minutes, before measurement at 402 nm in a Fluoroskan® Reader with shake program for 10 seconds. Positive results are recorded as a decrease in ELAM concentration in tested wells, as compared to control wells.

Row | SMILES | EC50 [µM]
1 | CCOC(=O)C1(CSc2nnnn2-c2ccccc2)OC(=O)C(O)=C1Sc1nnnn1-c1ccccc1 (stereo not drawn) [4-Hydroxy-5-oxo-3-(1-phenyl-1H-tetrazol-5-ylsulfanyl)-2-(1-phenyl-1H-tetrazol-5-ylsulfanylmethyl)-2,5-dihydro-furan-2-carboxylic acid ethyl ester] | ≤ 30
2 | O=C1OC(CSc2nc3ccccc3s2)(C(=O)O)C(Sc2nc3ccccc3s2)=C1O (stereo not drawn) [3-(Benzothiazol-2-ylsulfanyl)-2-(benzothiazol-2-ylsulfanylmethyl)-4-hydroxy-5-oxo-2,5-dihydro-furan-2-carboxylic acid] | ≤ 30
3 | Cc1ccc2[nH]c(SC3=C(O)C(=O)OC3C(=O)OC3CC(C)CCC3C(C)C)nc2c1 (stereo not drawn) [4-Hydroxy-3-(5-methyl-1H-benzoimidazol-2-ylsulfanyl)-5-oxo-2,5-dihydro-furan-2-carboxylic acid 2-isopropyl-5-methyl-cyclohexyl ester] | ≤ 30
4 | CN(C)CC(=O)OCC1(CSc2nc3ccccc3[nH]2)OC(=O)C(O)=C1Sc1nc2ccccc2[nH]1 (stereo not drawn) [Dimethylamino-acetic acid 3-(1H-benzoimidazol-2-ylsulfanyl)-2-(1H-benzoimidazol-2-ylsulfanylmethyl)-4-hydroxy-5-oxo-2,5-dihydro-furan-2-ylmethyl ester] | ≤ 30
5 | CCOC(=O)C1(CSc2nc3ccccc3n2CC)OC(=O)C(OCC)=C1Sc1nc2ccccc2n1CC (stereo not drawn) [4-Ethoxy-3-(1-ethyl-1H-benzoimidazol-2-ylsulfanyl)-2-(1-ethyl-1H-benzoimidazol-2-ylsulfanylmethyl)-5-oxo-2,5-dihydro-furan-2-carboxylic acid ethyl ester] | ≤ 30
6 | CCOC(=O)C1(CSc2ccc3ccccc3c2)OC(=O)C(O)=C1Sc1ccc2ccccc2c1 (stereo not drawn) [4-Hydroxy-3-(naphthalen-2-ylsulfanyl)-2-(naphthalen-2-ylsulfanylmethyl)-5-oxo-2,5-dihydro-furan-2-carboxylic acid ethyl ester] | ≤ 30
7 | CCOC(=O)C1(CSC(=S)N2CCCC2)OC(=O)C(O)=C1SC(=S)N1CCCC1 (stereo not drawn) [4-Hydroxy-5-oxo-3-(pyrrolidine-1-carbothioylsulfanyl)-2-(pyrrolidine-1-carbothioylsulfanylmethyl)-2,5-dihydro-furan-2-carboxylic acid ethyl ester] | ≤ 30
8 | CCOC(=O)C1(CSc2nc3cc(Cl)c(Cl)cc3[nH]2)OC(=O)C(O)=C1Sc1nc2cc(Cl)c(Cl)cc2[nH]1 (stereo not drawn) [3-(5,6-Dichloro-1H-benzoimidazol-2-ylsulfanyl)-2-(5,6-dichloro-1H-benzoimidazol-2-ylsulfanylmethyl)-4-hydroxy-5-oxo-2,5-dihydro-furan-2-carboxylic acid ethyl ester] | ≤ 30
9 | CN(C)CCSCC1(C(=O)O)OC(=O)C(O)=C1SCCN(C)C (stereo not drawn) [3-(2-Dimethylamino-ethylsulfanyl)-2-(2-dimethylamino-ethylsulfanylmethyl)-4-hydroxy-5-oxo-2,5-dihydro-furan-2-carboxylic acid] | ≤ 30
10 | CCOC(=O)C1(C[S+]([O-])Cc2ccco2)OC(=O)C(O)=C1S(=O)(=O)Cc1ccco1 (stereo not drawn) [2-(Furan-2-ylmethanesulfinylmethyl)-3-(furan-2-ylmethanesulfonyl)-4-hydroxy-5-oxo-2,5-dihydro-furan-2-carboxylic acid ethyl ester] | ≤ 30
11 | CCCCCCSCC1(C(=O)OCC)OC(=O)C(O)=C1SCCCCCC (stereo not drawn) [3-Hexylsulfanyl-2-hexylsulfanylmethyl-4-hydroxy-5-oxo-2,5-dihydro-furan-2-carboxylic acid ethyl ester] | ≤ 30
12 | CCOC(=O)C1(CSc2ccnc3cc(C(F)(F)F)ccc23)OC(=O)C(O)=C1Sc1ccnc2cc(C(F)(F)F)ccc12 (stereo not drawn) [4-Hydroxy-5-oxo-3-(7-trifluoromethyl-quinolin-4-ylsulfanyl)-2-(7-trifluoromethyl-quinolin-4-ylsulfanylmethyl)-2,5-dihydro-furan-2-carboxylic acid ethyl ester] | ≤ 30
13 | CCOC(=O)C1(CSCc2ccco2)OC(=O)C(OC(C)=O)=C1SCc1ccco1 (stereo not drawn) [4-Acetoxy-3-(furan-2-ylmethylsulfanyl)-2-(furan-2-ylmethylsulfanylmethyl)-5-oxo-2,5-dihydro-furan-2-carboxylic acid ethyl ester] | ≤ 30
14 | O=C1NC(=O)C2(OC(=O)C(O)=C2Sc2nc3ccccc3[nH]2)C(=O)N1 [4-(1H-Benzoimidazol-2-ylsulfanyl)-3-hydroxy-1-oxa-7,9-diaza-spiro[4,5]dec-3-ene-2,6,8,10-tetraone] | ≤ 30
15 | O=C1OC(CO)(CSc2nc3cc(S(=O)(=O)O)ccc3[nH]2)C(Sc2nc3cc(S(=O)(=O)O)ccc3[nH]2)=C1O (stereo not drawn) [4-(5-sulfo-1H-benzoimidazol-2-ylsulfanyl)-5-(5-sulfo-1H-benzoimidazol-2-ylsulfanylmethyl)-3-hydroxy-5-hydroxymethyl-5H-furan-2-one] | ≤ 30
16 | CCOC(=O)C1(CSCc2ccccc2)OC(=O)C(OC(C)=O)=C1SCc1ccccc1 (stereo not drawn) [4-Acetoxy-3-benzylsulfanyl-2-benzylsulfanylmethyl-5-oxo-2,5-dihydro-furan-2-carboxylic acid ethyl ester] | ≤ 30
17 | CCOC(=O)C1(CSc2nc3cc(Cl)ccc3s2)OC(=O)C(O)=C1Sc1nc2cc(Cl)ccc2s1 (stereo not drawn) [3-(5-Chloro-benzothiazol-2-ylsulfanyl)-2-(5-chloro-benzothiazol-2-ylsulfanylmethyl)-4-hydroxy-5-oxo-2,5-dihydro-furan-2-carboxylic acid ethyl ester] | ≤ 30
18 | CCOC(=O)C1OC(=O)C(O)=C1Sc1nc2ccccc2[nH]1 (stereo not drawn) [3-(1H-Benzoimidazol-2-ylsulfanyl)-4-hydroxy-5-oxo-2,5-dihydro-furan-2-carboxylic acid ethyl ester] | ≤ 30
19 | CCOC(=O)[C@]1(CSCC(NC(=O)CCC(N)C(=O)O)C(=O)NCC(=O)O)OC(=O)C(O)=C1SCC(NC(=O)CCC(N)C(=O)O)C(=O)NCC(=O)O (stereo partly drawn) [R-3-[2-(4-Amino-4-carboxy-butyrylamino)-2-(carboxymethyl-carbamoyl)-ethylsulfanyl]-2-[2-(4-amino-4-carboxy-butyrylamino)-2-(carboxymethyl-carbamoyl)ethylsulfanylmethyl]-4-hydroxy-5-oxo-2,5-dihydro-furan-2-carboxylic acid ethyl ester] | ≤ 30
20 | CCOC(=O)C1(CSc2ccccc2Cl)OC(=O)C(O)=C1Sc1ccccc1Cl (stereo not drawn) [3-(2-Chloro-phenylsulfanyl)-2-(2-chloro-phenylsulfanylmethyl)-4-hydroxy-5-oxo-2,5-dihydro-furan-2-carboxylic acid ethyl ester] | ≤ 30
21 | CCOC(=O)C1(CSCCS(=O)(=O)O)OC(=O)C(O)=C1SCCS(=O)(=O)O (stereo not drawn) [4-Hydroxy-5-oxo-3-(2-sulfo-ethylsulfanyl)-2-(2-sulfo-ethylsulfanylmethyl)-2,5-dihydro-furan-2-carboxylic acid ethyl ester] | ≤ 30
